From patent publication US20230390274A1 (EPIRIUM BIO INC., priority 2020, published 2023) come the findings set out here.

The target in the experiment is 15-PGDH/HPGD (Homo sapiens (Human), UniProt P15428). Briefly: hPGDH inhibitor screening biochemical assay. Particulars: 10 nM 15-PGDH/HPGD, 15 μM PGE2, 0.25 mM NAD; read-out: hPGDH: Average IC50. The procedure, abridged:
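10 nM recombinant 15-PGDH was preincubated with compound (10-point) for 10 min at 37° C. in 50 mM Tris-HCl pH 7.5, 0.01% Tween 20. Then 15 μM PGE2 and 0.25 mM NAD+ were added for 10 min at rt. NADH fluorescence (ex/em 340/485 nm) gave % inhibition versus 1% DMSO and a four-parameter IC50.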

As usually defined, the IC50 is the concentration at which inhibition is half-maximal.

Molecules are shown by their SMILES.

Chain of 15-PGDH/HPGD (P15428 whole entry): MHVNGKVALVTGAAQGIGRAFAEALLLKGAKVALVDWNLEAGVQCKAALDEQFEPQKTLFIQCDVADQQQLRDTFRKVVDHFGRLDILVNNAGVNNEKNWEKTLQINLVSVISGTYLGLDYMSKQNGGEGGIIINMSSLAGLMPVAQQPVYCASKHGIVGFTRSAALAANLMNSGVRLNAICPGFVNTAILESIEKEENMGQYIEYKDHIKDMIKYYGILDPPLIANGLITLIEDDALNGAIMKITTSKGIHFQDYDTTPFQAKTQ

With `CC(C)(C(N)=O)c1cncc(-n2ccc3cc(C(=O)N4CCC(F)(F)CC4)cnc32)c1` [A-277, 2-(5-(5-(4,4-difluoropiperidine-1-carbonyl)-1H-pyrrolo[2,3-b]pyridin-1-yl)pyridin-3-yl)-2-methylpropanamide], the IC50 is less than 100 nM. Take `NS(=O)(=O)c1cccc(-n2ccc3cc(C(=O)N4CCC(F)(F)CC4)cnc32)c1` [A-279]: the IC50 is less than 100 nM. The result for `NS(=O)(=O)c1ccc(-n2ccc3cc(C(=O)N4CCC(F)(F)CC4)cnc32)cc1` [A-280] reads less than 100 nM; that for `O=C(c1cnc2c(ccn2-c2cccc(C(=O)N3CCS(=O)(=O)C3)c2)c1)N1CCC(F)(F)CC1` [A-281, (4,4-difluoropiperidin-1-yl)(1-(3-(1,1-dioxidothiazolidine-3-carbonyl)phenyl)-1H-pyrrolo[2,3-b]pyridin-5-yl)methanone], less than 100 nM. The result for `O=C(Nc1cc(C2CC2)[nH]n1)c1cccc(-n2ccc3cc(C(=O)N4CCC(F)(F)CC4)cnc32)c1` [A-282, N-(5-cyclopropyl-1H-pyrazol-3-yl)-3-(5-(4,4-difluoropiperidine-1-carbonyl)-1H-pyrrolo[2,3-b]pyridin-1-yl)benzamide] reads less than 100 nM; that for `O=C(Nc1ccn(C2CC2)n1)c1cccc(-n2ccc3cc(C(=O)N4CCC(F)(F)CC4)cnc32)c1` [A-283, N-(1-cyclopropyl-1H-pyrazol-3-yl)-3-(5-(4,4-difluoropiperidine-1-carbonyl)-1H-pyrrolo[2,3-b]pyridin-1-yl)benzamide], less than 100 nM; that for `O=C(Nc1ccn(C2CC2)n1)c1cncc(-n2ccc3cc(C(=O)N4CCC(F)(F)CC4)cnc32)c1` [A-284, N-(1-cyclopropyl-1H-pyrazol-3-yl)-5-(5-(4,4-difluoropiperidine-1-carbonyl)-1H-pyrrolo[2,3-b]pyridin-1-yl)nicotinamide], less than 100 nM. In the case of `O=C(Nc1cc(C2CC2)[nH]n1)c1cncc(-n2ccc3cc(C(=O)N4CCC(F)(F)CC4)cnc32)c1` [A-285, N-(5-cyclopropyl-1H-pyrazol-3-yl)-5-(5-(4,4-difluoropiperidine-1-carbonyl)-1H-pyrrolo[2,3-b]pyridin-1-yl)nicotinamide] it was less than 100 nM; in that of `N#Cc1cc(-n2ccc3cc(C(=O)N4CCC(F)(F)CC4)cnc32)cnc1O` [A-286], less than 100 nM. As to `O=C(O)c1cccc(-n2ccc3cc(C(=O)N4CCC(F)(F)CC4)cnc32)c1` [A-287, 3-(5-(4,4-difluoropiperidine-1-carbonyl)-1H-pyrrolo[2,3-b]pyridin-1-yl)benzoic acid], the half-maximal inhibitory concentration (IC50) was less than 100 nM. The result for `O=C(c1cnc2c(ccn2-c2cc(Cl)cc(C(=O)N3CCS(=O)(=O)CC3)c2)c1)N1CCC(F)(F)CC1` [A-288] reads less than 100 nM. The result for `CC(C)(C#N)c1cncc(-n2ccc3cc(C(=O)N4CCC(F)(F)CC4)cnc32)c1` [A-289, 2-(5-(5-(4,4-difluoropiperidine-1-carbonyl)-1H-pyrrolo[2,3-b]pyridin-1-yl)pyridin-3-yl)-2-methylpropanenitrile] reads less than 100 nM; that for `O=C(c1cnc2c(ccn2-c2ccc(-c3nn[nH]n3)cc2)c1)N1CCC(F)(F)CC1` [A-290, (1-(4-(2H-tetrazol-5-yl)phenyl)-1H-pyrrolo[2,3-b]pyridin-5-yl)(4,4-difluoropiperidin-1-yl)methanone], less than 100 nM.

Take `O=C(c1cnc2c(ccn2-c2cccc(-c3nn[nH]n3)c2)c1)N1CCC(F)(F)CC1` [A-291, (1-(3-(2H-tetrazol-5-yl)phenyl)-1H-pyrrolo[2,3-b]pyridin-5-yl)(4,4-difluoropiperidin-1-yl)methanone]: the IC50 was less than 100 nM. With `O=C(c1cnc2c(ccn2-c2cncc(-c3nc[nH]n3)c2)c1)N1CCC(F)(F)CC1` [A-292, (1-(5-(1H-1,2,4-triazol-3-yl)pyridin-3-yl)-1H-pyrrolo[2,3-b]pyridin-5-yl)(4,4-difluoropiperidin-1-yl)methanone], the half-maximal inhibitory concentration (IC50) was less than 100 nM. The result for `CC(C)(O)CNC(=O)c1cc(Cl)cc(-n2ccc3cc(C(=O)N4CCC(F)(F)CC4)cnc32)c1` [A-293] reads less than 100 nM; that for `O=C(c1cnc2c(ccn2-c2cccc(C(=O)N3CC[S+]([O-])C3)c2)c1)N1CCC(F)(F)CC1` (stereo not shown) [A-294, (4,4-difluoropiperidin-1-yl)(1-(3-(1-oxidothiazolidine-3-carbonyl)phenyl)-1H-pyrrolo[2,3-b]pyridin-5-yl)methanone], less than 100 nM.

On to `O=C(c1cnc2c(c1)c(Cl)cn2-c1cnccn1)N1CCC(F)CC1` [A-295], for which the 50% inhibitory concentration (IC50) is less than 100 nM. In the case of `Cc1cncc(-n2cc(Cl)c3cc(C(=O)N4CCC(F)CC4)cnc32)n1` [A-296, (3-chloro-1-(6-methylpyrazin-2-yl)-1H-pyrrolo[2,3-b]pyridin-5-yl)(4-fluoropiperidin-1-yl)methanone], the IC50 is less than 100 nM.

Take `O=C(c1cnc2c(ccn2-c2ccc3c(c2)OCO3)c1)N1CCC(F)CC1` [A-298]: the IC50 is less than 100 nM.

In the case of `COc1ccc(-n2c(C)nc3cc(C(=O)N4CCC(F)CC4)ccc32)cc1` [A-303], the IC50 is less than 100 nM. The result for `COc1ccc(-n2ccc3cc(C(=O)N4CCC(F)CC4)ccc32)cc1` [A-304] reads less than 100 nM; that for `COc1ccc(-n2cc(C)c3cc(C(=O)N4CCC(F)CC4)ccc32)cc1` [A-305, (4-fluoropiperidin-1-yl)(1-(4-methoxyphenyl)-3-methyl-1H-indol-5-yl)methanone], less than 100 nM; that for `CCc1nc2cc(C(=O)N3CCC(F)CC3)ccc2n1-c1ccc(OC)cc1` [A-306], less than 100 nM. In the case of `COc1cccc(-c2cn(C)c3cc(C(=O)N4CCC(F)CC4)cnc23)c1` [A-307, (4-fluoropiperidin-1-yl)(3-(3-methoxyphenyl)-1-methyl-1H-pyrrolo[3,2-b]pyridin-6-yl)methanone] it was 100 to 1000 nM; in that of `COc1ccccc1-c1cn(C)c2cc(C(=O)N3CCC(F)CC3)cnc12` [A-308, (4-fluoropiperidin-1-yl)(3-(2-methoxyphenyl)-1-methyl-1H-pyrrolo[3,2-b]pyridin-6-yl)methanone], not below 1000 nM.

Turning to `COc1ccc(-n2c(C)nc3cc(C(=O)N4CCCCC4)ccc32)cc1` [A-310], the IC50 is less than 100 nM. In the case of `CCC(CC)n1cnc2cc(C(=O)N3CCCCC3)ccc21` [A-311] it was less than 100 nM; in that of `COc1ccc(-n2nnc3cc(C(=O)N4CCC(F)CC4)ccc32)cc1` [A-312, (4-fluoropiperidin-1-yl)(1-(4-methoxyphenyl)-1H-benzo[d][1,2,3]triazol-5-yl)methanone], less than 100 nM; in that of `COc1ccc(-n2nnc3cc(C(=O)N4CCCCC4)ccc32)cc1` [A-313, (1-(4-methoxyphenyl)-1H-benzo[d][1,2,3]triazol-5-yl)(piperidin-1-yl)methanone], less than 100 nM. The result for `O=C(c1cnc2c(ccn2-c2ccc3c(c2)OC(F)(F)O3)c1)N1CCCCC1` [A-317] reads less than 100 nM; that for `O=C(c1cnc2c(ccn2C2CCC(F)(F)CC2)c1)N1CCCCC1` [A-320], not below 1000 nM. The result for `COc1ccc(-n2ccc3c(C)c(C(=O)N4CCCCC4)cnc32)cc1` [A-321] reads less than 100 nM; that for `COc1ccc(-n2ccc3c(C#N)c(C(=O)N4CCCCC4)cnc32)cc1` [A-323, 1-(4-methoxyphenyl)-5-(piperidine-1-carbonyl)-1H-pyrrolo[2,3-b]pyridine-4-carbonitrile], less than 100 nM. On to `COc1ccc(-n2ccc3c(N)c(C(=O)N4CCCCC4)cnc32)cc1` [A-324, (4-amino-1-(4-methoxyphenyl)-1H-pyrrolo[2,3-b]pyridin-5-yl)(piperidin-1-yl)methanone], for which the 50% inhibitory concentration (IC50) is less than 100 nM. In the case of `O=C(c1ccc2c(cnn2-c2cncc(Cl)c2)c1)N1CCCCC1` [A-325] it was less than 100 nM; in that of `COc1ccc(-n2c(CCC(C)(C)O)cc3cc(C(=O)N4CCCCC4)cnc32)cc1` [A-326, (2-(3-hydroxy-3-methylbutyl)-1-(4-methoxyphenyl)-1H-pyrrolo[2,3-b]pyridin-5-yl)(piperidin-1-yl)methanone], less than 100 nM. Turning to `CN(C)c1ccc(-n2ccc3cc(C(=O)N4CCC(F)CC4)cnc32)cc1` [A-327], the half-maximal inhibitory concentration (IC50) is less than 100 nM. In the case of `O=C(c1cnc2c(ccn2-c2cncc(-c3n[nH]c(C4CC4)n3)c2)c1)N1CCC(F)(F)CC1` [A-332, (1-(5-(5-cyclopropyl-1H-1,2,4-triazol-3-yl)pyridin-3-yl)-1H-pyrrolo[2,3-b]pyridin-5-yl)(4,4-difluoropiperidin-1-yl)methanone] it was less than 100 nM; in that of `O=C(c1cnc2c(ccn2-c2ccc(-c3n[nH]c(C4CC4)n3)nc2)c1)N1CCC(F)(F)CC1` [A-333, (1-(6-(5-cyclopropyl-1H-1,2,4-triazol-3-yl)pyridin-3-yl)-1H-pyrrolo[2,3-b]pyridin-5-yl)(4,4-difluoropiperidin-1-yl)methanone], less than 100 nM. Regarding `O=C(c1cnc2c(ccn2-c2ccc(-c3nnc(C(F)(F)F)[nH]3)nc2)c1)N1CCC(F)(F)CC1` [A-334, (4,4-Difluoropiperidin-1-yl)(1-(6-(5-(trifluoromethyl)-4H-1,2,4-triazol-3-yl)pyridin-3-yl)-1H-pyrrolo[2,3-b]pyridin-5-yl)methanone], the IC50 is less than 100 nM.

With `CC(C)(C)c1ccc(NC(=O)c2cncc(-n3ccc4cc(C(=O)N5CCC(F)(F)CC5)cnc43)c2)cn1` [A-335, N-(6-(tert-butyl)pyridin-3-yl)-5-(5-(4,4-difluoropiperidine-1-carbonyl)-1H-pyrrolo[2,3-b]pyridin-1-yl)nicotinamide], the IC50 is less than 100 nM.

Take `CC(C)(O)CCc1cc2cc(C(=O)N3CCC(F)(F)CC3)cnc2n1-c1ccc(C(=O)O)cc1` [A-336, 4-(5-(4,4-difluoropiperidine-1-carbonyl)-2-(3-hydroxy-3-methylbutyl)-1H-pyrrolo[2,3-b]pyridin-1-yl)benzoic acid]: the IC50 was less than 100 nM.
